Assays:
[1] = tested on: dimethyl-benz(a)anthracene-induced mammary tumor; details: 1–2 ppm Se in diet from 1 week before DMBA until sacrifice; order of efficacy: Se-methylselenocysteine > selenite > selenocysteine > dimethyl selenoxide; cited from earlier work
[2] = tested on: rats with macrophage associated liver injury and endotoxemia; experiment: Suppression of macrophage associated liver injury and endotoxemia (P. acnes + LPS) in rats; type: in vivo, rat; details: Se-methyl-L-selenocysteine 4 mg/kg, composition 2 mg/kg
Procedure: The composition used consisted of Se-methyl-L-selenocysteine of the parent application to which piperine from black pepper fruit was added such that the animals received a co-administered daily dose of 5 mg of piperine.
Study Design: Male Wistar King A rats (200–250 g) were maintained on a basal pelleted diet and water ad libitum under normal temperature and lighting conditions. All rats received an injection of 40 mg/kg body weight of heat killed Propionibacterium acnes (ATCC 11827), 20 mg/ml suspension in saline via the tail vein on day 1. Seven days later they received an intravenous injection of 350 mcg/kg body weight of lipopolysaccharide (LPS, Difco Laboratories, MI, USA), 200 mcg/ml solution in saline). 5 rats received a daily dose of 4 mg/kg body weight of Se-methyl-L-selenocysteine and 5 rats received 2 mg/kg body weight of the composition of the invention, orally for 3 days in the feed, 4 control rats received no supplementation, prior to induction of liver injury, 4 normal controls were not subjected to liver injury. Serum levels of TNF-α were measured. TNF-α is thought to be the principal mediator of the deleterious effects of LPS.

glutathione peroxidase = details: selenium-depleted animals; efficiency: Se-methylselenocysteine > dimethyl selenoxide > trimethylselenonium; cited from earlier work

## C[Se]C[C@H](N)C(=O)O [Se-methyl-L-selenocysteine]
[1]
  chemopreventive activity (tumor inhibition): tumor inhibition
[2]; oral 3 days
  Catalase: 31.16 ± 3.95 micromole of H2O2 consumed/min
  Glutathione (GSH): 7.43 ± 0.69 mcg/mg protein
  Glutathione peroxidase: 8.13 ± 0.71 micromole of GSH oxidized/min/
  Serum Lipid peroxides: 2.71 ± 0.32 MDA formed/mg protein
  Superoxide dismutase: 4.91 ± 0.48 Units/min/mg protein
  TNF-alpha (serum): 81 ± 6 ng/mL
[2]; oral in feed 3 days before injury, survivors/n
  Survival rate: 3/5
Glutathione peroxidase
  ability to restore glutathione peroxidase activity: fully replete

## C[Se](C)=O [dimethyl selenoxide]
[1]
  chemopreventive activity (tumor inhibition): tumor inhibition
Glutathione peroxidase
  ability to restore glutathione peroxidase activity: fully replete

## O=[Se](O)O [selenite]
[1]
  chemopreventive activity (tumor inhibition): tumor inhibition

## N[C@@H](C[SeH])C(=O)O [selenocysteine]
[1]
  chemopreventive activity (tumor inhibition): tumor inhibition

## C[Se+](C)C [trimethylselenonium]
Glutathione peroxidase
  ability to restore glutathione peroxidase activity: fully replete

Source: patent publication US6982273B1, “Compositions and methods containing bioavailable Se-methyl-L-selenocysteine for human and veterinary use” (Sami Labs Ltd., priority 2002, dated 2006)
